# Measurements taken from PubChem BioAssay AID1963837 (Molecular Pharmacology Branch, DTP, NCI, 2024).
# Test system: 843126-344-R-J1-PDC complex spheroid viability
# Assay: Anticancer human tumor 843126-344-R-J1-PDC patient-derived melanoma cell line growth inhibition [POLQ]
# Conditions: for IC50: curve of first compound; for viability, T/C: stronger effect = lower value
# Method in brief: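 Three-cell-type spheroids modelling solid tumor plus stroma served as the readout system; POL inhibitors were tested individually and in combination, concentration ranges set by clinical Cmax where known.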
# [1] = second compound 0.0316 µM, first compound 0.0316 µM
# [2] = second compound 0.0316 µM, first compound 0.1 µM
# [3] = second compound 0.0316 µM, first compound 0.316 µM
# [4] = second compound 0.0316 µM, first compound 1 µM
# [5] = second compound 0.1 µM, first compound 0.0316 µM
# [6] = second compound 0.1 µM, first compound 0.1 µM
# [7] = second compound 0.1 µM, first compound 0.316 µM
# [8] = second compound 0.1 µM, first compound 1 µM
# [9] = second compound 0.316 µM, first compound 0.0316 µM
# [10] = second compound 0.316 µM, first compound 0.1 µM
# [11] = second compound 0.316 µM, first compound 0.316 µM
# [12] = second compound 0.316 µM, first compound 1 µM
# [13] = second compound 1 µM, first compound 0.0316 µM
# [14] = second compound 1 µM, first compound 0.1 µM
# [15] = second compound 1 µM, first compound 0.316 µM
# [16] = second compound 1 µM, first compound 1 µM
# [17] = second compound 3.16 µM, first compound 0.0316 µM
# [18] = second compound 3.16 µM, first compound 0.1 µM
# [19] = second compound 3.16 µM, first compound 0.316 µM
# [20] = second compound 3.16 µM, first compound 1 µM
# [21] = second compound 10 µM, first compound 0.0316 µM
# [22] = second compound 10 µM, first compound 0.1 µM
# [23] = second compound 10 µM, first compound 0.316 µM
# [24] = second compound 10 µM, first compound 1 µM
# [25] = second compound 0.0316 µM, first compound 3.16 µM
# [26] = second compound 0.0316 µM, first compound 10 µM
# [27] = second compound 0.1 µM, first compound 3.16 µM
# [28] = second compound 0.1 µM, first compound 10 µM
# [29] = second compound 0.316 µM, first compound 3.16 µM
# [30] = second compound 0.316 µM, first compound 10 µM
# [31] = second compound 1 µM, first compound 3.16 µM
# [32] = second compound 1 µM, first compound 10 µM
# [33] = second compound 3.16 µM, first compound 3.16 µM
# [34] = second compound 3.16 µM, first compound 10 µM
# [35] = second compound 10 µM, first compound 3.16 µM
# [36] = second compound 10 µM, first compound 10 µM
# 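Wherever viability, T/C is given: spheroids exposed to drugs for seven days before readout.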
compound,measurement,setting,value
COc1cccc(OCCCN)c1-c1cc(Nc2cnc(C#N)cn2)n[nH]1 + Cc1cccc(N(C)C(=O)C2C(O)CCN2c2nc(C)cc(C(F)(F)F)c2C#N)c1,IC50,second compound 0.0316 µM,0.0961 µM
same,IC50,second compound 0.1 µM,0.0824 µM
same,IC50,second compound 0.316 µM,0.157 µM
same,IC50,second compound 1 µM,0.125 µM
same,IC50,second compound 3.16 µM,0.0799 µM
same,IC50,second compound 10 µM,0.0812 µM
same,"viability, T/C","second compound 0.0316 µM, first compound 0.00316 µM",96.8%
same,"viability, T/C","second compound 0.0316 µM, first compound 0.01 µM",75.1%
same,"viability, T/C",[1],63.5%
same,"viability, T/C",[2],48.8%
same,"viability, T/C",[3],40.5%
same,"viability, T/C",[4],34.3%
same,"viability, T/C","second compound 0.1 µM, first compound 0.00316 µM",102%
same,"viability, T/C","second compound 0.1 µM, first compound 0.01 µM",71.6%
same,"viability, T/C",[5],61.1%
same,"viability, T/C",[6],48%
same,"viability, T/C",[7],42.6%
same,"viability, T/C",[8],38.2%
same,"viability, T/C","second compound 0.316 µM, first compound 0.00316 µM",90%
same,"viability, T/C","second compound 0.316 µM, first compound 0.01 µM",75.9%
same,"viability, T/C",[9],59.8%
same,"viability, T/C",[10],59%
same,"viability, T/C",[11],43.3%
same,"viability, T/C",[12],34.4%
same,"viability, T/C","second compound 1 µM, first compound 0.00316 µM",92.9%
same,"viability, T/C","second compound 1 µM, first compound 0.01 µM",72.1%
same,"viability, T/C",[13],62.4%
same,"viability, T/C",[14],54.7%
same,"viability, T/C",[15],42.3%
same,"viability, T/C",[16],32.7%
same,"viability, T/C","second compound 3.16 µM, first compound 0.00316 µM",98.3%
same,"viability, T/C","second compound 3.16 µM, first compound 0.01 µM",77.3%
same,"viability, T/C",[17],58.3%
same,"viability, T/C",[18],47.5%
same,"viability, T/C",[19],41.7%
same,"viability, T/C",[20],33.8%
same,"viability, T/C","second compound 10 µM, first compound 0.00316 µM",108%
same,"viability, T/C","second compound 10 µM, first compound 0.01 µM",67.4%
same,"viability, T/C",[21],64.3%
same,"viability, T/C",[22],48.9%
same,"viability, T/C",[23],42.5%
same,"viability, T/C",[24],40.4%
COc1cc(C2c3cc4c(cc3C(OC3OC5COC(C)OC5C(O)C3O)C3COC(=O)C23)OCO4)cc(OC)c1O (stereo not drawn) + Nc1ccc(C#CCN(C(=O)Cc2ncc(C(F)(F)F)cc2C(F)(F)F)c2ccc(F)cc2)nn1,IC50,second compound 0.0316 µM,> 10 µM
same,IC50,second compound 0.1 µM,> 10 µM
same,IC50,second compound 0.316 µM,> 10 µM
same,IC50,second compound 1 µM,> 10 µM
same,IC50,second compound 3.16 µM,7.6 µM
same,IC50,second compound 10 µM,6.29 µM
same,"viability, T/C",[1],82.4%
same,"viability, T/C",[2],78.3%
same,"viability, T/C",[3],94%
same,"viability, T/C",[4],89.7%
same,"viability, T/C",[25],58.3%
same,"viability, T/C",[26],49.5%
same,"viability, T/C",[5],97.1%
same,"viability, T/C",[6],77.8%
same,"viability, T/C",[7],92%
same,"viability, T/C",[8],94.3%
same,"viability, T/C",[27],73.4%
same,"viability, T/C",[28],51.4%
same,"viability, T/C",[9],91.8%
same,"viability, T/C",[10],104%
same,"viability, T/C",[11],99.1%
same,"viability, T/C",[12],78.9%
same,"viability, T/C",[29],70.1%
same,"viability, T/C",[30],49.5%
same,"viability, T/C",[13],96.1%
same,"viability, T/C",[14],83.6%
same,"viability, T/C",[15],80.5%
same,"viability, T/C",[16],71.6%
same,"viability, T/C",[31],64.3%
same,"viability, T/C",[32],53.5%
same,"viability, T/C",[17],88.3%
same,"viability, T/C",[18],77%
same,"viability, T/C",[19],89.9%
same,"viability, T/C",[20],75.2%
same,"viability, T/C",[33],68.6%
same,"viability, T/C",[34],44.3%
same,"viability, T/C",[21],81.8%
same,"viability, T/C",[22],96.5%
same,"viability, T/C",[23],78.5%
same,"viability, T/C",[24],75.4%
same,"viability, T/C",[35],61.7%
same,"viability, T/C",[36],42.3%
O=C(Nc1ccc(O)c(NS(=O)(=O)c2ccc(F)cc2)c1)c1ccc(-c2ccccc2)cc1 + Cc1cccc(N(C)C(=O)C2C(O)CCN2c2nc(C)cc(C(F)(F)F)c2C#N)c1,IC50,second compound 0.0316 µM,> 10 µM
same,IC50,second compound 0.1 µM,> 10 µM
same,IC50,second compound 0.316 µM,> 10 µM
same,IC50,second compound 1 µM,> 10 µM
same,IC50,second compound 3.16 µM,> 10 µM
same,IC50,second compound 10 µM,> 10 µM
same,"viability, T/C",[1],90%
same,"viability, T/C",[2],95.2%
same,"viability, T/C",[3],93.6%
same,"viability, T/C",[4],90.3%
same,"viability, T/C",[25],99.6%
same,"viability, T/C",[26],70.8%
same,"viability, T/C",[5],98.2%
same,"viability, T/C",[6],94.5%
same,"viability, T/C",[7],84.1%
same,"viability, T/C",[8],83.6%
same,"viability, T/C",[27],96.5%
same,"viability, T/C",[28],75%
same,"viability, T/C",[9],86.4%
same,"viability, T/C",[10],88.2%
same,"viability, T/C",[11],103%
same,"viability, T/C",[12],99.2%
same,"viability, T/C",[29],84.8%
same,"viability, T/C",[30],70.2%
same,"viability, T/C",[13],95.7%
same,"viability, T/C",[14],88.1%
same,"viability, T/C",[15],96.6%
same,"viability, T/C",[16],99.9%
same,"viability, T/C",[31],92.4%
same,"viability, T/C",[32],72.6%
same,"viability, T/C",[17],97.5%
same,"viability, T/C",[18],97.7%
same,"viability, T/C",[19],89%
same,"viability, T/C",[20],90.6%
same,"viability, T/C",[33],84.6%
same,"viability, T/C",[34],69%
same,"viability, T/C",[21],92.2%
same,"viability, T/C",[22],87.4%
same,"viability, T/C",[23],89.2%
same,"viability, T/C",[24],85.5%
same,"viability, T/C",[35],93.5%
same,"viability, T/C",[36],62.5%
COc1ccc([C@@H](O)c2cc(-c3ncnc4cc(N5CCOCC5)ccc34)c(F)cc2Cl)nn1 + COC1C(OC(N)=O)C(O)C(Oc2ccc3c(O)c(NC(=O)c4ccc(O)c(CC=C(C)C)c4)c(=O)oc3c2C)OC1(C)C,IC50,second compound 0.0316 µM,> 10 µM
same,IC50,second compound 0.1 µM,> 10 µM
same,IC50,second compound 0.316 µM,7.08 µM
same,IC50,second compound 1 µM,> 10 µM
same,IC50,second compound 3.16 µM,> 10 µM
same,IC50,second compound 10 µM,9.31 µM
same,"viability, T/C",[1],116%
same,"viability, T/C",[2],82.3%
same,"viability, T/C",[3],105%
same,"viability, T/C",[4],84.7%
same,"viability, T/C",[25],85.7%
same,"viability, T/C",[26],53.4%
same,"viability, T/C",[5],85.8%
same,"viability, T/C",[6],85.7%
same,"viability, T/C",[7],116%
same,"viability, T/C",[8],79.5%
same,"viability, T/C",[27],81.6%
same,"viability, T/C",[28],54.1%
same,"viability, T/C",[9],93.4%
same,"viability, T/C",[10],98.2%
same,"viability, T/C",[11],92.8%
same,"viability, T/C",[12],89%
same,"viability, T/C",[29],63%
same,"viability, T/C",[30],44.4%
same,"viability, T/C",[13],95.8%
same,"viability, T/C",[14],80.1%
same,"viability, T/C",[15],92.8%
same,"viability, T/C",[16],91%
same,"viability, T/C",[31],85.6%
same,"viability, T/C",[32],54.9%
same,"viability, T/C",[17],87.8%
same,"viability, T/C",[18],102%
same,"viability, T/C",[19],90.3%
same,"viability, T/C",[20],73.8%
same,"viability, T/C",[33],85%
same,"viability, T/C",[34],49.9%
same,"viability, T/C",[21],87%
same,"viability, T/C",[22],76%
same,"viability, T/C",[23],109%
same,"viability, T/C",[24],76%
same,"viability, T/C",[35],69.6%
same,"viability, T/C",[36],48.5%
